From patent publication US12409192B2, “Traditional Chinese medicine composition and use thereof” (JIANGSU KANION PHARMACEUTICAL CO., LTD, priority 2021, dated 2025)

Test system: fever induced by dry yeast in rats
Assay: Dry yeast-induced fever in rats
Type: in vivo
Details: composition 3.34 g crude drugs/kg, aspirin 0.20 g/kg, X ± SD, n = 10
Procedure: Male SD rats, weighing 180-220 g were fed adaptively for 1 week, with the environmental temperature maintained at 20-25° C. The rectal temperature of the rats was measured once daily at 10:00 am for two consecutive days to acclimate them to this procedure. The average of the two temperature measurements was taken as the baseline temperature. Rats with a temperature range of 37.0-38.6° C. and a fluctuation <0.5° C. were selected for the experiment. Each rat was subcutaneously injected with 10 ml/kg of a 20% suspension of dry yeast to induce fever. (Preparation method: 120 g of dry yeast was weighed and placed in a mortar, gradually adding distilled water to grind into a uniform suspension, and then adjusted to a volume of 600 mL, prepare this solution fresh.) Six hours after injecting the yeast suspension, the body temperature of the rats was measured. One hundred and seventy rats with a temperature increase ranging from 1.0 to 2.2 degrees Celsius were selected and randomly divided into 17 groups based on their temperatures. […] Each group was orally gavaged with the corresponding solvent or drug, and rectal temperature was measured at 1 h, 2 h, 3 h, 4 h, and 5 h after administration to calculate the temperature difference from baseline.
Male SD rats, weighing 180-220 g were fed adaptively for 1 week, with the environmental temperature maintained at 20-25° C. The rectal temperature of the rats was measured once daily at 10:00 am for two consecutive days to acclimate them to this procedure. The average of the two temperature measurements was taken as the baseline temperature. Rats with a temperature range of 37.0-38.6° C. and a fluctuation <0.5° C. were selected for the experiment. Each rat was subcutaneously injected with 10 ml/kg of a 20% suspension of dry yeast to induce fever. (Preparation method: 120 g of dry yeast was weighed and placed in a mortar, gradually adding distilled water to grind into a uniform suspension, and then adjusted to a volume of 600 mL, prepare this solution fresh.) Six hours after injecting the yeast suspension, the body temperature of the rats was measured. Ninety rats with a temperature increase ranging from 1.0 to 2.2 degrees Celsius were selected and randomly divided into 9 groups based on their temperatures. These groups were as follows: (1) Model group: administered distilled water, (2) 7 batches of traditional Chinese medicine groups P-V: dosage of 3.34 g crude drugs/kg, (3) Positive control group: administered aspirin suspension, dosage of 0.20 g/kg. Each group was orally gavaged with the corresponding solvent or drug, and rectal temperature was measured at 1 h, 2 h, 3 h, 4 h, and 5 h after administration to calculate the temperature difference from baseline.

SMILES: CC(=O)Oc1ccccc1C(=O)O [Aspirin, aspirin]
- Temperature rise degrees after administration of medication (ΔT), 1 h (1 h after oral gavage): 0.40 ± 0.24 degrees
- Temperature rise degrees after administration of medication (ΔT), 2 h (2 h after oral gavage): 0.34 ± 0.37 degrees
- Temperature rise degrees after administration of medication (ΔT), 3 h (3 h after oral gavage): 0.27 ± 0.28 degrees
- Temperature rise degrees after administration of medication (ΔT), 4 h (4 h after oral gavage): 0.22 ± 0.23 degrees
- Temperature rise degrees after administration of medication (ΔT), 5 h (5 h after oral gavage): 0.22 ± 0.24 degrees
- Degrees of temperature rise after administration of medication (ΔT), 1 h (verification study, 1 h after oral gavage): 0.42 ± 0.34 Degrees
- Degrees of temperature rise after administration of medication (ΔT), 2 h (verification study, 2 h after oral gavage): 0.42 ± 0.31 Degrees
- Degrees of temperature rise after administration of medication (ΔT), 3 h (verification study, 3 h after oral gavage): 0.34 ± 0.31 Degrees
- Degrees of temperature rise after administration of medication (ΔT), 4 h (verification study, 4 h after oral gavage): 0.23 ± 0.30 Degrees
- Degrees of temperature rise after administration of medication (ΔT), 5 h (verification study, 5 h after oral gavage): 0.17 ± 0.13 Degrees
